# Reference: PubChem BioAssay AID1552 (Sanford-Burnham Center for Chemical Genomics, 2009)
# The source made the active and inactive calls. How the calls were made is not given here.
# Target: Ubiquitin-conjugating enzyme E2 N (Homo sapiens) (UniProt P61088)
# Assay: UBE2N binders by NMR, biophysical, purified protein (AID 1552)
# Settings: NMR binding to purified UBE2N
# Chain of Ubiquitin-conjugating enzyme E2 N (Homo sapiens) (P61088 whole entry, looked up): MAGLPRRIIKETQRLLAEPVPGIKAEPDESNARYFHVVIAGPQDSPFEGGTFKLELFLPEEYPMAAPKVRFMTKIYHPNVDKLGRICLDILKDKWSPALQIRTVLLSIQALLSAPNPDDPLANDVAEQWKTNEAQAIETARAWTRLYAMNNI
row,SMILES,Kd
1,C[C@H]1C(=O)O[C@@H]2CCN3CC=C(COC(=O)[C@](C)(O)[C@]1(C)O)[C@H]23,> 4 mM (inactive)
2,O=C(OCc1c(Cl)cccc1Cl)c1cnccn1,> 4 mM (inactive)
3,COc1cc(O)c(C(=O)c2ccccc2)cc1O,> 4 mM (inactive)
4,CC(C)(C#N)O[C@@H]1O[C@H](CO)[C@@H](O)[C@H](O)[C@H]1O,> 4 mM (inactive)
5,Cc1cc(C)n(C2CCS(=O)(=O)C2)n1 (configuration not stated),> 4 mM (inactive)
6,CC(=O)NC(=S)Nc1ccccc1N1CCOCC1,> 4 mM (inactive)
7,Cc1nc2ccc(NC(=O)N3CCOCC3)cc2s1,> 4 mM (inactive)
8,CCn1c(-c2c[nH]c3ccccc23)n[nH]c1=S,> 4 mM (inactive)
9,CC(=O)O[C@H]1C[C@@H](OC(C)=O)C(C)(C)C2CC(=O)[C@]3(C)C(CC[C@@]4(C)[C@H](C(=O)O)OC(=O)C5OC543)[C@]21C (some centres not stated),> 4 mM (inactive)
10,Cc1cc(C(=O)Nc2cccnc2)cs1,> 4 mM (inactive)
11,CC(=O)Oc1c2c(c(CC=C(C)C)c3c1C(=O)C1=C[C@@H]4CC5C(C)(C)OC(C/C=C(\C)C(=O)O)(C4=O)[C@@]15O3)OC(C)(CCC=C(C)C)C=C2 (some centres not stated),> 4 mM (inactive)
12,CC(=O)NC12CC3CC(C)(C1)CC(NC(C)=O)(C3)C2,> 4 mM (inactive)
13,COC(=O)c1cc2ccccc2cn1,> 4 mM (inactive)
14,O=C(Nn1c(=S)[nH]c2ccccc2c1=O)c1ccncc1,> 4 mM (inactive)
15,CC(=O)N/N=C(\C)c1cccc(N)c1,> 4 mM (inactive)
16,O=c1[nH]c2sc3c(c2c2ncnn12)CCCC3,> 4 mM (inactive)
17,c1ccc(CCc2nc(-c3cccnc3)no2)cc1,> 4 mM (inactive)
18,O=C(O)c1cccc(N2C(=O)C3CC=CCC3C2=O)c1 (configuration not stated),> 4 mM (inactive)
19,CCCC(=O)N1CCSCC1,> 4 mM (inactive)
20,CN1CCN(c2nc3c(c(=O)[nH]2)CCCC3)CC1,> 4 mM (inactive)
21,O=C(/C(=N\O)n1cncn1)c1ccccc1Cl,> 4 mM (inactive)
22,O=C(/C=C/C=C/c1ccc2c(c1)OCO2)N1CCCCC1,> 4 mM (inactive)
23,O=P1(O)c2ccccc2Nc2ccccc21,> 4 mM (inactive)
24,CS(=O)(=O)c1nncn1-c1ccccc1,> 4 mM (inactive)

row,SMILES,Kd
1,O=C(OCc1c(F)cccc1Cl)c1cnccn1,> 4 mM (inactive)
2,NC(=O)CN1C(=O)c2cccc3cccc1c23,> 4 mM (inactive)
3,Nc1ccc2c(c1)CCC2=O,> 4 mM (inactive)
4,CN(C)c1ccc(N2C(=O)CCC2=O)cc1,> 4 mM (inactive)
5,O=C(Nc1cccnc1)Nc1ccc2c(c1)OCO2,> 4 mM (inactive)
6,NC(=S)N1CCC(c2ccccc2)=N1,> 4 mM (inactive)
7,COC(=O)Nc1nc2c(s1)CCCC2,> 4 mM (inactive)
8,CC1(C)Cc2c(c(-c3ccco3)[nH]c(=O)c2C#N)CO1,> 4 mM (inactive)
9,Nc1ccc2c(c1)OCCO2,> 4 mM (inactive)
10,O=C(NCCCO)c1ccncc1,> 4 mM (inactive)
11,CCN1CCn2c1nc(N1CCOCC1)nc2=O,> 4 mM (inactive)
12,CCN1CCN(CCCNc2ncnc3nc[nH]c23)CC1,> 4 mM (inactive)
13,CSc1n[nH]c(NCc2cccs2)n1,> 4 mM (inactive)
14,COc1cccc(=O)c2c(C)n(C)c(C)c12,> 4 mM (inactive)
15,c1coc(CNc2nc(-c3ccncc3)cs2)c1,> 4 mM (inactive)
16,NS(=O)(=O)c1ccc(N2CCCC2=O)cc1,> 4 mM (inactive)
17,Cn1c(=O)c2c(ncn2C)n(C)c1=O,> 4 mM (inactive)
18,Nc1nc(-c2ccccc2)cc(=O)[nH]1,> 4 mM (inactive)
19,Nc1nc(N)nc(N2C(=O)c3ccccc3C2=O)n1,> 4 mM (inactive)
20,CS(=O)(=O)N1CCN(c2ccccc2F)CC1,> 4 mM (inactive)
21,CC(=O)NC(=S)Nc1ccccc1C,> 4 mM (inactive)
22,C=CCSc1[nH]c(=O)cc(C)c1C(N)=O,> 4 mM (inactive)
23,OCC1Cc2ccccc2CN1 (configuration not stated),> 4 mM (inactive)
